Laboratory results reported in BindingDB's records for doi:10.1021/jm950409c (University of Bari Aldo Moro, 1996).

Tests used:
[1] = Inhibition of [3H]DTG binding to sigma receptor from guinea pig brain cortex membrane
[2] = Inhibitory activity against sigma receptor isolated from guinea pig brain cortex membrane using PCP as radioligand at a concentration of 10e-5 M
[3] = Inhibitory activity against 5-hydroxytryptamine 1A receptor isolated from rat hippocampus membranes membrane using [3H]5-HT as radioligand in the presence of 10e-6 M ketanserin as 5-HT2 blocker
[4] = target: Sigma non-opioid intracellular receptor 1 (Cavia porcellus) (UniProt Q60492); assay: Inhibitory activity against sigma receptor isolated from guinea pig brain cortex membrane using [3H]DTG as radioligand
Chain of Sigma non-opioid intracellular receptor 1 (Cavia porcellus) (Q60492 whole entry, looked up): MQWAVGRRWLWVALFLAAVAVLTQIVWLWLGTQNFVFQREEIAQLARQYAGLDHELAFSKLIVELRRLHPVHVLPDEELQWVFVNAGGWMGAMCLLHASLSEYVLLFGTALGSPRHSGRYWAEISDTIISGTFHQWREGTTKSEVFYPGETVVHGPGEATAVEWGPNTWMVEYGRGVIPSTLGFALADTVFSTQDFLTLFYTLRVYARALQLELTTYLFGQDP

SMILES | Ki [1] | Ki [2] | Ki [3] | Ki [4]
COc1cccc2c1CCCC2CCCNCCNc1ccccc1 (stereo unspecified) [N-[3-(5-Methoxy-1,2,3,4-tetrahydro-naphthalen-1-yl)-propyl]-N'-phenyl-ethane-1,2-diamine] | 265 nM | 2130 nM |  | 
COc1ccc2c(c1)C(CCCN1CCN(C3=NCCCC3)CC1)CCC2 (stereo unspecified) [1-[3-(7-Methoxy-1,2,3,4-tetrahydro-naphthalen-1-yl)-propyl]-4-(3,4,5,6-tetrahydro-pyridin-2-yl)-piperazine] | 29 nM |  |  | 
COc1cccc2c1CCC=C2CCCN1CCN(Cc2ccccc2)CC1 [1-Benzyl-4-[3-(5-methoxy-3,4-dihydro-naphthalen-1-yl)-propyl]-piperazine] |  |  | > 1430 nM | 139 nM
COc1cccc2c1CCCC2CCCN1CCNCC1 (stereo unspecified) [1-(3-(5-methoxy-1,2,3,4-tetrahydronaphthalen-1-yl)propyl)piperazine] | > 877 nM |  |  | 
